Where a SMILES comes first, the peptide text is derived from it. [ ]: non-standard residue; d: D form. MeBmt = C/C=C/C[C@@H](C)[C@@H](O)[C@H](NC)C(=O)O; NMeY = CN[C@@H](Cc1ccc(O)cc1)C(=O)O; NMeF = CN[C@@H](Cc1ccccc1)C(=O)O; NMeI = CC[C@H](C)[C@H](NC)C(=O)O; NMeT = CN[C@H](C(=O)O)[C@@H](C)O; NMeL = CN[C@@H](CC(C)C)C(=O)O; dNMeV = CN[C@@H](C(=O)O)C(C)C; NMeNle = CCCC[C@H](NC)C(=O)O; NMeNva = CCC[C@H](NC)C(=O)O; NMeV = CN[C@H](C(=O)O)C(C)C; NMeA = CN[C@@H](C)C(=O)O; dNMeA = CN[C@H](C)C(=O)O; Abu = CC[C@H](N)C(=O)O; Sar = CNCC(=O)O
Biological target: T1, Cyclophilin A (Homo sapiens, UniProt P62937)
T1 construct: made in house
T1 sequence (P62937 whole entry, species assumed): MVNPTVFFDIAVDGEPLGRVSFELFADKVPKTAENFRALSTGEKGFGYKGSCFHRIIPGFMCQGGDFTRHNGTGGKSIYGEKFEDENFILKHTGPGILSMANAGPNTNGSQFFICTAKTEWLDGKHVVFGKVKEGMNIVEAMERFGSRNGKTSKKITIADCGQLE
Test: AlphaLISA inhibition of binding of biotinylated Cyclosporin A to FLAG tagged Cyclophilin A
Conditions: for % signal: AlphaLISA signal; for % signal / % inhibition of CsA binding to Cyclophilin A: test concentration not given; for IC50: read-out: IC50 value of CsA binding to Cyclophilin A
Summary of the method: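 Inhibition of biotin-CsA binding to FLAG-tagged Cyclophilin A read by AlphaLISA (ex 680, em 615 nm). Working stocks were 6 nM biotinylated CsA and 25 nM FLAG-CypA; beads and compound were combined first for 30 min, then protein added for 60 min, all at room temperature in the dark, with DMSO and cyclosporin A controls.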

Row | Compound | % signal | IC50 | % inhibition of CsA binding to Cyclophilin A
1 | C/C=C/C[C@@H](C)[C@@H](O)[C@H]1C(=O)N[C@@H](CC)C(=O)N(C)CC(=O)N(C)[C@@H](C)C(=O)N[C@@H](C(C)C)C(=O)N(C)[C@@H](C)C(=O)N[C@@H](CC(C)C)C(=O)N[C@H](C)C(=O)N(C)[C@@H](CC(C)C)C(=O)N(C)[C@@H](CC(C)C)C(=O)N(C)[C@@H](C(C)C)C(=O)N1C [Compound C82] (cyclo([MeBmt][Abu][Sar][NMeA]V[NMeA]L[dA][NMeL][NMeL][NMeV])) | 0.77% | < 2000 nM | 99.23%
2 | C/C=C/C[C@@H](C)[C@@H](O)[C@H]1C(=O)N[C@@H](CC)C(=O)N(C)CC(=O)N(C)[C@H](C)C(=O)N[C@@H](C(C)C)C(=O)N(C)[C@@H](C)C(=O)N[C@@H](CC(C)C)C(=O)N[C@H](C)C(=O)N(C)[C@@H](CC(C)C)C(=O)N(C)[C@@H](CC(C)C)C(=O)N(C)[C@@H](C(C)C)C(=O)N1C [Compound C83] (cyclo([MeBmt][Abu][Sar][dNMeA]V[NMeA]L[dA][NMeL][NMeL][NMeV])) | 0.65% | < 2000 nM | –
3 | C/C=C/C[C@@H](C)[C@@H](O)[C@H]1C(=O)N[C@@H](CC)C(=O)N(C)CC(=O)N(C)[C@@H](Cc2ccccc2)C(=O)N[C@@H](C(C)C)C(=O)N(C)[C@@H](C)C(=O)N[C@@H](CC(C)C)C(=O)N[C@H](C)C(=O)N(C)[C@@H](CC(C)C)C(=O)N(C)[C@@H](CC(C)C)C(=O)N(C)[C@@H](C(C)C)C(=O)N1C [Compound C84] (cyclo([MeBmt][Abu][Sar][NMeF]V[NMeA]L[dA][NMeL][NMeL][NMeV])) | 6.81% | < 2000 nM | 93.19%
4 | C/C=C/C[C@@H](C)[C@@H](O)[C@H]1C(=O)N[C@@H](CC)C(=O)N(C)CC(=O)N(C)CC(=O)N[C@@H](C(C)C)C(=O)N(C)[C@@H](C)C(=O)N[C@@H](CC(C)C)C(=O)N[C@H](C)C(=O)N(C)[C@@H](CC(C)C)C(=O)N(C)[C@@H](CC(C)C)C(=O)N(C)[C@@H](C(C)C)C(=O)N1C [Compound C85] (cyclo([MeBmt][Abu][Sar][Sar]V[NMeA]L[dA][NMeL][NMeL][NMeV])) | 0.87% | < 2000 nM | 99.13%
5 | C/C=C/C[C@@H](C)[C@@H](O)[C@H]1C(=O)N[C@@H](CC)C(=O)N(C)CC(=O)N(C)[C@@H](CC(C)C)C(=O)N[C@@H](C(C)C)C(=O)N(C)[C@@H](C)C(=O)N[C@@H](CC(C)C)C(=O)N[C@H](C)C(=O)N(C)[C@@H](CC(C)C)C(=O)N(C)[C@@H](CC(C)C)C(=O)N(C)[C@@H](C(C)C)C(=O)N1C [Compound C86] (cyclo([MeBmt][Abu][Sar][NMeL]V[NMeA]L[dA][NMeL][NMeL][NMeV])) | 17.23% | < 2000 nM | 82.77%
6 | C/C=C/C[C@@H](C)[C@@H](O)[C@H]1C(=O)N[C@@H](CC)C(=O)N(C)CC(=O)N(C)[C@@H]([C@@H](C)O)C(=O)N[C@@H](C(C)C)C(=O)N(C)[C@@H](C)C(=O)N[C@@H](CC(C)C)C(=O)N[C@H](C)C(=O)N(C)[C@@H](CC(C)C)C(=O)N(C)[C@@H](CC(C)C)C(=O)N(C)[C@@H](C(C)C)C(=O)N1C [Compound C87] (cyclo([MeBmt][Abu][Sar][NMeT]V[NMeA]L[dA][NMeL][NMeL][NMeV])) | 4.53% | < 2000 nM | 95.47%
7 | C/C=C/C[C@@H](C)[C@@H](O)[C@H]1C(=O)N[C@@H](CC)C(=O)N(C)CC(=O)N(C)[C@@H](Cc2ccc(O)cc2)C(=O)N[C@@H](C(C)C)C(=O)N(C)[C@@H](C)C(=O)N[C@@H](CC(C)C)C(=O)N[C@H](C)C(=O)N(C)[C@@H](CC(C)C)C(=O)N(C)[C@@H](CC(C)C)C(=O)N(C)[C@@H](C(C)C)C(=O)N1C [Compound C88] (cyclo([MeBmt][Abu][Sar][NMeY]V[NMeA]L[dA][NMeL][NMeL][NMeV])) | 5.94% | < 2000 nM | 94.06%
8 | C/C=C/C[C@@H](C)[C@@H](O)[C@H]1C(=O)N[C@@H](CC)C(=O)N(C)CC(=O)N(C)[C@@H](C(C)C)C(=O)N[C@@H](C(C)C)C(=O)N(C)[C@@H](C)C(=O)N[C@@H](CC(C)C)C(=O)N[C@H](C)C(=O)N(C)[C@@H](CC(C)C)C(=O)N(C)[C@@H](CC(C)C)C(=O)N(C)[C@@H](C(C)C)C(=O)N1C [Compound C89] (cyclo([MeBmt][Abu][Sar][NMeV]V[NMeA]L[dA][NMeL][NMeL][NMeV])) | 3.10% | < 2000 nM | 96.90%
9 | C/C=C/C[C@@H](C)[C@@H](O)[C@H]1C(=O)N[C@@H](CC)C(=O)N(C)CC(=O)N(C)[C@@H](CCC)C(=O)N[C@@H](C(C)C)C(=O)N(C)[C@@H](C)C(=O)N[C@@H](CC(C)C)C(=O)N[C@H](C)C(=O)N(C)[C@@H](CC(C)C)C(=O)N(C)[C@@H](CC(C)C)C(=O)N(C)[C@@H](C(C)C)C(=O)N1C [Compound C90] (cyclo([Abu][Sar][NMeNva]V[NMeA]L[dA][NMeL][NMeL][NMeV][MeBmt])) | 6.46% | < 2000 nM | 93.54%
10 | C/C=C/C[C@@H](C)[C@@H](O)[C@H]1C(=O)N[C@@H](CC)C(=O)N(C)CC(=O)N(C)[C@H](C(C)C)C(=O)N[C@@H](C(C)C)C(=O)N(C)[C@@H](C)C(=O)N[C@@H](CC(C)C)C(=O)N[C@H](C)C(=O)N(C)[C@@H](CC(C)C)C(=O)N(C)[C@@H](CC(C)C)C(=O)N(C)[C@@H](C(C)C)C(=O)N1C [Compound C91] (cyclo([Abu][Sar][dNMeV]V[NMeA]L[dA][NMeL][NMeL][NMeV][MeBmt])) | 5.17% | < 2000 nM | 94.83%
11 | C/C=C/C[C@@H](C)[C@@H](O)[C@H]1C(=O)N[C@@H](CC)C(=O)N(C)CC(=O)N(C)[C@@H](CCCC)C(=O)N[C@@H](C(C)C)C(=O)N(C)[C@@H](C)C(=O)N[C@@H](CC(C)C)C(=O)N[C@H](C)C(=O)N(C)[C@@H](CC(C)C)C(=O)N(C)[C@@H](CC(C)C)C(=O)N(C)[C@@H](C(C)C)C(=O)N1C [Compound C92] (cyclo([Abu][Sar][NMeNle]V[NMeA]L[dA][NMeL][NMeL][NMeV][MeBmt])) | 9.00% | < 2000 nM | 91.00%
12 | C/C=C/C[C@@H](C)[C@@H](O)[C@H]1C(=O)N[C@@H](CC)C(=O)N(C)CC(=O)N(C)[C@@H]([C@@H](C)CC)C(=O)N[C@@H](C(C)C)C(=O)N(C)[C@@H](CC(C)C)C(=O)N[C@@H](CC)C(=O)N[C@H](C)C(=O)N(C)[C@@H](CC(C)C)C(=O)N(C)[C@@H](CC(C)C)C(=O)N(C)[C@@H](C(C)C)C(=O)N1C [Compound C93] (cyclo([Abu][Sar][NMeI]V[NMeL][Abu][dA][NMeL][NMeL][NMeV][MeBmt])) | 1.28% | < 2000 nM | 98.72%
13 | C/C=C/C[C@@H](C)[C@@H](O)[C@H]1C(=O)N[C@@H](CC)C(=O)N(C)CC(=O)N(C)[C@@H](C)C(=O)N[C@@H](C(C)C)C(=O)N(C)[C@@H](CC(C)C)C(=O)N[C@@H](CC)C(=O)N[C@H](C)C(=O)N(C)[C@@H](CC(C)C)C(=O)N(C)[C@@H](CC(C)C)C(=O)N(C)[C@@H](C(C)C)C(=O)N1C [Compound C94] (cyclo([Abu][Sar][NMeA]V[NMeL][Abu][dA][NMeL][NMeL][NMeV][MeBmt])) | 3.71% | < 2000 nM | 96.29%
14 | C/C=C/C[C@@H](C)[C@@H](O)[C@H]1C(=O)N[C@@H](CC)C(=O)N(C)CC(=O)N(C)[C@H](C)C(=O)N[C@@H](C(C)C)C(=O)N(C)[C@@H](CC(C)C)C(=O)N[C@@H](CC)C(=O)N[C@H](C)C(=O)N(C)[C@@H](CC(C)C)C(=O)N(C)[C@@H](CC(C)C)C(=O)N(C)[C@@H](C(C)C)C(=O)N1C [Compound C95] (cyclo([Abu][Sar][dNMeA]V[NMeL][Abu][dA][NMeL][NMeL][NMeV][MeBmt])) | 6.90% | < 2000 nM | 93.10%
15 | C/C=C/C[C@@H](C)[C@@H](O)[C@H]1C(=O)N[C@@H](CC)C(=O)N(C)CC(=O)N(C)[C@@H](Cc2ccccc2)C(=O)N[C@@H](C(C)C)C(=O)N(C)[C@@H](CC(C)C)C(=O)N[C@@H](CC)C(=O)N[C@H](C)C(=O)N(C)[C@@H](CC(C)C)C(=O)N(C)[C@@H](CC(C)C)C(=O)N(C)[C@@H](C(C)C)C(=O)N1C [Compound C96] (cyclo([Abu][Sar][NMeF]V[NMeL][Abu][dA][NMeL][NMeL][NMeV][MeBmt])) | 5.00% | < 2000 nM | 95.00%
16 | C/C=C/C[C@@H](C)[C@@H](O)[C@H]1C(=O)N[C@@H](CC)C(=O)N(C)CC(=O)N(C)CC(=O)N[C@@H](C(C)C)C(=O)N(C)[C@@H](CC(C)C)C(=O)N[C@@H](CC)C(=O)N[C@H](C)C(=O)N(C)[C@@H](CC(C)C)C(=O)N(C)[C@@H](CC(C)C)C(=O)N(C)[C@@H](C(C)C)C(=O)N1C [Compound C97] (cyclo([Abu][Sar][Sar]V[NMeL][Abu][dA][NMeL][NMeL][NMeV][MeBmt])) | 6.42% | < 2000 nM | 93.58%

— patent publication US20200199102A1, “COMPOUNDS THAT PARTICIPATE IN COOPERATIVE BINDING AND USES THEREOF” (Revolution Medicines, Inc., priority 2017, published 2020)
